Assay results reported in US8865703B2, “Pyridyltriazoles” (Boehringer Ingelheim International GmbH, priority 2010, dated 2014).

target: T1, B-Raf (V600E)-kinase (Homo sapiens, UniProt P15056, V600E); test: Kinase test B-Raf (V600E); assay type: biochemical; details: 1 h incubation with kinase before start, 250 μM ATP, biotinylated MEK1 substrate
T1 construct: purchased Upstate
Procedure: Kinase Test B-Raf (V600E)
In a dilution series 10 μL/well of test substance solution are placed in a multiwell plate. The dilution series is selected so that generally a range of concentrations of 2 μM to 0.119 nM or 0.017 nM is covered. If necessary the initial concentration of 2 μM is changed to 50 μM, 10 μM, 0.4 μM or 0.2857 μM and further dilution is carried out accordingly. The final concentration of DMSO is 5%. 10 μL/well of the B-Raf (V600E)-kinase solution are pipetted in (containing 0.5 ng B-Raf (V600E)-kinase, e.g. from Upstate) in 20 mM tris-HCl pH 7.5, 0.1 mM EDTA, 0.1 mM EGTA, 0.286 mM sodium orthovanadate, 10% glycerol, 1 mg/mL bovine serum albumin, 1 mM dithiothreitol) and the mixture is incubated for 1 h at RT with shaking. The kinase reaction is started by the addition of 20 μL/well ATP solution [final concentration: 250 μM ATP, 30 mM tris-HCl pH 7.5, 0.02% Brij, 0.2 mM sodium orthovanadate, 10 mM magnesium acetate, 0.1 mM EGTA, phosphatase cocktail (Sigma, # P2850, dilution recommended by the manufacturer)] and 10 μL/well MEK1 solution [containing 50 ng biotinylated MEK1 (prepared from purified MEK1 according to standard procedure, e.g. with EZ-Link Sulpho-NHS-LC-Biotin reagent, Pierce, #21335)] and carried out for 60 min at RT with constant shaking. The reaction is stopped by the addition of 12 μL/well of a 100 mM EDTA solution and incubation is continued for a further 5 min. 55 μL/well of the reaction solution are transferred into a streptavidin-coated plate (e.g. Streptawell HighBond, Roche, #11989685001) and gently shaken for 1 h at RT in order to bind biotinylated MEK1 to the plate. After elimination of the liquid the plate is washed five times with 200 μL/well of 1×PBS and 100 μL/well solution of primary antibody plus europium-labelled secondary antibody [Anti Phospho-MEK (Ser217/221), Cell Signaling, #9121 and Eu-N1 labelled goat-anti-rabbit antibody, Perkin Elmer, # AD0105] is added, the primary antibody is diluted 1:2000 and the secondary antibody is diluted to 0.4-0.5 μg/mL in Delfia Assay Buffer (Perkin Elmer, #1244-111). After 1 h shaking at RT the solution is poured away and washed five times with 200 μL/well Delfia Wash Buffer (Perkin Elmer, #4010-0010/#1244-114). After the addition of 200 μL/well Enhancement Solution (Perkin Elmer, #4001-0010/#1244-105) the mixture is shaken for 10 min at RT and then measured in a Wallac Victor using the program “Delfia Time Resolved Fluorescence (Europium)”. IC50 values are obtained from these dosage-activity curves using a software program (GraphPadPrizm).

T1 sequence (P15056 whole entry V600E): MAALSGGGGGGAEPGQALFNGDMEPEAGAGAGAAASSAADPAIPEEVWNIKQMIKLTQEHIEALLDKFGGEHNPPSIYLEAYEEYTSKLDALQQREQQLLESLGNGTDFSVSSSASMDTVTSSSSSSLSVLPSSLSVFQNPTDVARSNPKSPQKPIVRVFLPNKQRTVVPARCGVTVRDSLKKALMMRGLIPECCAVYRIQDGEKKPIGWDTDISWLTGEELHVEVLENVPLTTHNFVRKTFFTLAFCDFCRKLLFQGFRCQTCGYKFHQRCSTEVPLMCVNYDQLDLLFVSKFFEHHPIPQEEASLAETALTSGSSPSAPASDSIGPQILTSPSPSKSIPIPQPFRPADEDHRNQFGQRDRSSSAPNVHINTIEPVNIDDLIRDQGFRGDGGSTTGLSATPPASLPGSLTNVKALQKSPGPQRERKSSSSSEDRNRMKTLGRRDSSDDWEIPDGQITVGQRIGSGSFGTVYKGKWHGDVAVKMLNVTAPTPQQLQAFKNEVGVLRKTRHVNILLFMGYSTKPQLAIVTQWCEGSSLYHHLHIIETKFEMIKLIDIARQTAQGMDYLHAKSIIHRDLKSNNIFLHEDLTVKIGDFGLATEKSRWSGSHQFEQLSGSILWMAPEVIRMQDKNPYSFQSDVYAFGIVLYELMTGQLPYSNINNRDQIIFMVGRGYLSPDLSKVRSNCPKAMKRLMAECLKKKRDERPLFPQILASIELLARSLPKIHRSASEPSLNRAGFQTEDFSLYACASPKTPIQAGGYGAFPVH

Compound | IC50
Cc1ncc(NC(=O)c2ccc(C(C)(C)C)s2)cc1-n1cc(-c2cncc(N3CCN(CC4CC4)CC3)c2)nn1 [I-10] | 6 nM
Cc1ncc(NC(=O)c2cc(C)n(C(C)(C)C)n2)cc1-n1cc(-c2cncc(N3CCN(CCOC(C)C)CC3)c2)nn1 [I-25] | 16 nM
Cc1ncc(NC(=O)c2cc(C)n(C(C)(C)C)n2)cc1-n1cc(-c2cncc(N3CCCN(C)CC3)c2)nn1 [I-16] | 9 nM
CCc1cc(C(=O)Nc2cnc(C)c(-n3cc(-c4cncc(N5CCN(C(C)C)CC5)c4)nn3)c2)nn1C(C)(C)C [I-27] | 12 nM
Cc1ncc(NC(=O)c2ccc(C(C)(C)C)o2)cc1-n1cc(-c2cncc(N3CCN(CC4CC4)CC3)c2)nn1 [I-5] | 3 nM
CCN1CCN(c2cncc(-c3cn(-c4cc(NC(=O)c5ccc(C(C)(C)C)s5)cnc4C)nn3)c2)CC1 [I-12] | 3 nM
Cc1ncc(NC(=O)c2cc(C(C)C)n(C(C)(C)C)n2)cc1-n1cc(-c2cncc(N3CCN(C(C)C)CC3)c2)nn1 [I-38] | 29 nM
Cc1ncc(NC(=O)c2cc(C)n(C(C)C)n2)cc1-n1cc(-c2cncc(N3CCCN(C)CC3)c2)nn1 [I-50] | 5 nM
Cc1ncc(NC(=O)c2ccc(C(C)(C)C)o2)cc1-n1cc(-c2cncc(N3CCN(C(C)(C)C)CC3)c2)nn1 [I-4] | 4 nM
COCCCN1CCN(c2cncc(-c3cn(-c4cc(NC(=O)c5ccc(C(C)(C)C)s5)cnc4C)nn3)c2)CC1 [I-9] | 7 nM
CCOCCN1CCN(c2cncc(-c3cn(-c4cc(NC(=O)c5ccc(C(C)(C)C)s5)cnc4C)nn3)c2)CC1 [I-8] | 8 nM
CCCc1cc(C(=O)Nc2cnc(C)c(-n3cc(-c4cncc(N5CCN(CCC)CC5)c4)nn3)c2)nn1C(C)(C)C [I-35] | 22 nM
Cc1ncc(NC(=O)c2ccc(C(C)(C)C)s2)cc1-n1cc(-c2cncc(N3CCN(C)CC3)c2)nn1 [I-14] | 2 nM
Cc1ncc(NC(=O)c2cc(C(C)C)n(C(C)(C)C)n2)cc1-n1cc(-c2cncc(N3CCN(C)CC3)c2)nn1 [I-37] | 17 nM
CCCN1CCN(c2cncc(-c3cn(-c4cc(NC(=O)c5cc(C)n(C(C)C)n5)cnc4C)nn3)c2)CC1 [I-48] | 8 nM
CCCc1cc(C(=O)Nc2cnc(C)c(-n3cc(-c4cncc(N5CCN(C)CC5)c4)nn3)c2)nn1C(C)(C)C [I-36] | 18 nM
Cc1ncc(NC(=O)c2ccc(C(C)(C)C)o2)cc1-n1cc(-c2cncc(N3CCN(C(C)C)CC3)c2)nn1 [I-1] | 4 nM

Compound | IC50
Cc1ncc(NC(=O)c2cc(C)n(C(C)C)n2)cc1-n1cc(-c2cncc(N3CCN(C)CC3)c2)nn1 [I-45] | 9 nM
Cc1ncc(NC(=O)c2cc(C)n(C(C)C)n2)cc1-n1cc(-c2cncc(N3CCN(C4CC4)CC3)c2)nn1 [I-49] | 22 nM
CCOCCN1CCN(c2cncc(-c3cn(-c4cc(NC(=O)c5ccc(C(C)(C)C)o5)cnc4C)nn3)c2)CC1 [I-7] | 5 nM
CCCc1cc(C(=O)Nc2cnc(C)c(-n3cc(-c4cncc(N5CCN(C(C)C)CC5)c4)nn3)c2)nn1C(C)(C)C [I-34] | 23 nM
Cc1ncc(NC(=O)c2ccc(C(C)(C)C)o2)cc1-n1cc(-c2cncc(N3CCN(C)CC3)c2)nn1 [I-2] | 2 nM
Cc1ncc(NC(=O)c2cc(C)n(C(C)(C)C)n2)cc1-n1cc(-c2cncc(N3CCCN(C(C)C)CC3)c2)nn1 [I-29] | 19 nM
Cc1ncc(NC(=O)c2ccc(C(C)(C)C)s2)cc1-n1cc(-c2cncc(N3CCN(C(C)C)CC3)c2)nn1 [I-13] | 5 nM
Cc1ncc(NC(=O)c2cc(C)n(C(C)(C)C)n2)cc1-n1cc(-c2cncc(N3CCN(C(C)C)CC3)c2)nn1 [I-19] | 8 nM
CCN1CCN(c2cncc(-c3cn(-c4cc(NC(=O)c5cc(C)n(C(C)C)n5)cnc4C)nn3)c2)CC1 [I-46] | 6 nM
CCN1CCN(c2cncc(-c3cn(-c4cc(NC(=O)c5ccc(C(C)(C)C)o5)cnc4C)nn3)c2)CC1 [I-3] | 3 nM
COCCCN1CCN(c2cncc(-c3cn(-c4cc(NC(=O)c5ccc(C(C)(C)C)o5)cnc4C)nn3)c2)CC1 [I-6] | 5 nM
Cc1ncc(NC(=O)c2ccc(C(C)(C)C)s2)cc1-n1cc(-c2cncc(N3CCN(C(C)(C)C)CC3)c2)nn1 [I-11] | 6 nM
Cc1ncc(NC(=O)c2cc(C)n(C(C)(C)C)n2)cc1-n1cc(-c2cncc(N3CCN(C(C)(C)C)CC3)c2)nn1 [I-21] | 9 nM
Cc1ncc(NC(=O)c2cc(C)n(C(C)(C)C)n2)cc1-n1cc(-c2cncc(N3CCN(C)CC3)c2)nn1 [I-18] | 8 nM
Cc1ncc(NC(=O)c2cc(C)n(C(C)C)n2)cc1-n1cc(-c2cncc(N3CCN(C(C)C)CC3)c2)nn1 [I-47] | 6 nM
CCOCCN1CCN(c2cncc(-c3cn(-c4cc(NC(=O)c5cc(C)n(C(C)(C)C)n5)cnc4C)nn3)c2)CC1 [I-24] | 16 nM
COCCCN1CCN(c2cncc(-c3cn(-c4cc(NC(=O)c5cc(C)n(C(C)(C)C)n5)cnc4C)nn3)c2)CC1 [I-23] | 14 nM

Other lines, results leading:

IC50 | Compound
11 nM | Cc1ncc(NC(=O)c2cc(C)n(C(C)(C)C)n2)cc1-n1cc(-c2cncc(N3CCN(CC4CC4)CC3)c2)nn1 [I-22]
15 nM | CCc1cc(C(=O)Nc2cnc(C)c(-n3cc(-c4cncc(N5CCN(C)CC5)c4)nn3)c2)nn1C(C)(C)C [I-30]
71 nM | CCCc1cc(C(=O)Nc2cnc(C)c(-n3cc(-c4cncc(N5CCN(C6CC6)CC5)c4)nn3)c2)nn1C(C)(C)C [I-32]
7 nM | CCN1CCN(c2cncc(-c3cn(-c4cc(NC(=O)c5cc(C)n(C(C)(C)C)n5)cnc4C)nn3)c2)CC1 [I-20]
10 nM | CCCN1CCN(c2cncc(-c3cn(-c4cc(NC(=O)c5cc(C)n(C(C)(C)C)n5)cnc4C)nn3)c2)CC1 [I-17]
12 nM | CCc1cc(C(=O)Nc2cnc(C)c(-n3cc(-c4cncc(N5CCN(CC)CC5)c4)nn3)c2)nn1C(C)(C)C [I-31]
22 nM | Cc1ncc(NC(=O)c2cc(C3CC3)n(C(C)(C)C)n2)cc1-n1cc(-c2cncc(N3CCN(C(C)C)CC3)c2)nn1 [I-42]
16 nM | Cc1ncc(NC(=O)c2cc(C3CC3)n(C(C)(C)C)n2)cc1-n1cc(-c2cncc(N3CCN(C)CC3)c2)nn1 [I-41]
25 nM | CCN1CCN(c2cncc(-c3cn(-c4cc(NC(=O)c5cc(C(C)C)n(C(C)(C)C)n5)cnc4C)nn3)c2)CC1 [I-39]
30 nM | CCCN1CCN(c2cncc(-c3cn(-c4cc(NC(=O)c5cc(C6CC6)n(C(C)(C)C)n5)cnc4C)nn3)c2)CC1 [I-44]
26 nM | CCCN1CCN(c2cncc(-c3cn(-c4cc(NC(=O)c5cc(C(C)C)n(C(C)(C)C)n5)cnc4C)nn3)c2)CC1 [I-40]
55 nM | CCc1cc(C(=O)Nc2cnc(C)c(-n3cc(-c4cncc(N5CCN(C6CC6)CC5)c4)nn3)c2)nn1C(C)(C)C [I-26]
20 nM | Cc1ncc(NC(=O)c2cc(C)n(C(C)(C)C)n2)cc1-n1cc(-c2cncc(N3CCN(C4CC4)CC3)c2)nn1 [I-15]
22 nM | CCN1CCN(c2cncc(-c3cn(-c4cc(NC(=O)c5cc(C6CC6)n(C(C)(C)C)n5)cnc4C)nn3)c2)CC1 [I-43]
7 nM | CCCN1CCN(c2cncc(-c3cn(-c4cc(NC(=O)c5cc(CC)n(C(C)(C)C)n5)cnc4C)nn3)c2)CC1 [I-28]
16 nM | CCCc1cc(C(=O)Nc2cnc(C)c(-n3cc(-c4cncc(N5CCN(CC)CC5)c4)nn3)c2)nn1C(C)(C)C [I-33]
